Data published in US10287328B2, “Treatment of diabetes, toll-like receptor 4 modulators and methods for using the same” (KeMyth Biotech Co., Ltd., priority 2016, dated 2019).

Experiments:
[1] = Blood glucose level in HFD-induced, STZ-injected type 2 diabetic rats; type: in vivo, Sprague-Dawley rats; conditions: STZ-injected HFD-fed rats, 2 mg/kg/3 days i.p. for 30 days, compared to STZ+vehicle
Description: The Sprague-Dawley rats were allocated to two dietary regimens by feeding either normal or HFD ad libitum, for the initial period of 2 weeks. After 2 weeks of dietary manipulation, the group of rats fed HFD were injected intraperitoneally (i.p.) with a low dose of STZ (35 mg/kg b.w.), while the respective control rats were given vehicle citrate buffer (pH 4.5) in a dose volume of 1 mL/kg, i.p. Seven days after STZ injection, rats were screened for blood glucose levels. Overnight fasted (10-12 hours) animals were given glucose (3 g/kg b.w.) by gastric intubation. After 2 hours of oral administration, blood samples were taken from lateral tail vein, left to coagulate and centrifuged; then serum glucose concentration was measured. Rats having serum glucose ≥200 mg/dL after 2 hours of glucose intake were considered diabetic and selected for further pharmacological studies. The rats were allowed to continue to feed on their respective diets until the end of the study (16). […]
Blood Glucose Test Strips and Blood Glucose Monitoring System were used to determine whole blood glucose levels on a drop of tail blood collected between 10 am and midday. Glucose concentration was determined colorimetrically using a glucose oxidase/peroxidase reagent kit. Samples were incubated with 100 μl of assay reagent at 37° C. for 30 min and measured at 540 nm. […]

[2] = system: HUVEC; conditions: treated for 1, 4 and 7 hours (FIG. 16)
[3] = system: caspase-3 activity in HUVECs; type: cell-based, human; conditions: compared to control cells
Description: Cell apoptosis was detected by using commercial terminal deoxynucleotidyl transferase-dUTP nick end labeling (TUNEL) and caspase-3 activity kits, i.e., Apo-BrdU in Situ DNA Fragmentation Assay Kit (BioVision) and NucView™ 488 Caspase-3 Enzyme Substrate (Biotium). In brief, after incubation with M199 media in the presence or absence of […] various PLY peptides, at 37° C., 5% CO2 for 1 hour, HUVECs were washed with PBS and fixed with fixation buffer on ice for 20 min. Cells were then soaked in 70% alcohol for 1 hr. After 2 times of wash by washing buffer, cells were incubated in DNA labeling solution for 60 min at 37° C. Cells were then treated with rinse buffer and incubated with antibody buffer for 30 min at room temperature. The cell nuclei were stained with propidium iodide for 30 min. Samples were observed by fluorescent microscopeand photographed charge-coupled device (CCD) camera.
As to caspase-3 activity assay, after variant peptide treatments, HUVECs were washed by PBS. Cells were then reacted with Caspase-3 Enzyme Substrate 1 mM for 30 min at room temperature. Cells were then observed by fluorescent microscopeand photographed CCD camera.

[4] = system: HUVECs; type: cell-based, human
Description: Cell viability was detected by a methanethiosulfonate (MTS) assay. In brief, 2×10^4 HUVECs were seeded to a 48-well plates in 100 μl endothelial cell medium (ECM, ScienCell Research Laboratory, Cat. 1001, USA) per well and incubated for 24 hrs. The media was removed and the cells were then incubated with media having 2% fetal bovine serum (FBS), in the absence or presence of various peptides, such as PLY, PLY123, PLY4, C70PLY4 or N35PLY4, at a concentration of 1, 10 or 100 nM. After incubation for 18 hours, the media was removed and 20 μl MTS reagents (20%) were added to each well in the final volume of 100 μl and placed in incubator for 1 hours. The optical density was measured at 490 nm using a plate reader.

[5] = Blood glucose level in C57BL/KsJ-db/db diabetic mice; type: in vivo; conditions: 2 mg/kg/3 days i.p. for 30 days, compared with control group, after week 2
Description: Male C57BL/KsJ-db/db mice (diabetic deficiency knockout mice) at 5 weeks of age (23 g) were fed a pelletized commercial chow diet for acclimation from the arrival for 2 weeks. […]. They were given free access to food and distilled water, and the food consumption and body weight gain were measured daily and weekly, respectively. […]; and (2) group 2 served as diabetic mice administered C70PLY4 (2 mg/kg/3 days) in aqueous suspension i.p. for 30 days (C70PLY4). […] The blood was centrifuged at 1000 g for 15 min at 4° C., and plasma and erythrocyte were separated. The livers and adipose tissues were removed, washed, weighted, and frozen at −70° C. until analyzed.
Blood Glucose Test Strips and Blood Glucose Monitoring System were used to determine whole blood glucose levels on a drop of tail blood collected between 10 am and midday. Glucose concentration was determined colorimetrically using a glucose oxidase/peroxidase reagent kit. Samples were incubated with 100 μl of assay reagent at 37° C. for 30 min and measured at 540 nm. Values were expressed in mg/dL.

Sequence: QDLTAHFTTSIPLKGNVRNLSVKIRECTGLAWEWWRTVYEKTDLPLVRKRTISIWGTTLYPQVEDKVEND [C70PLY4]
- blood glucose levels [1]: decreased blood glucose
- cell morphology of HUVEC [2]: did not affect the cell morphology
- apoptotic potential, caspase-3 activity assay [3]: no apoptotic potential
- toxicity to HUVECs (FIG. 15) ([4]; MTS assay, 1, 10 or 100 nM, statement for high concentration (100 nM)): no toxic effects
- toxic effects to HUVECs at 100 nM or below ([4]; MTS assays, 100 nM or below, data not shown): no toxic effects
- blood glucose level [5]: significantly decreases
